From patent US9643916B2, “Low molecular weight cationic lipids for oligonucleotide delivery” (SIRNA THERAPEUTICS, INC., priority 2010, dated 2017)

Experiments:
[1] = system: mRNA transcript for the firefly (Photinus pyralis) luciferase gene; assay: Mouse in vivo evaluation of efficacy (luciferase mouse model, liver luminescence by IVIS imaging); conditions: LSL-Luc transgenic mice, Luc siRNA RDVs tail vein injected, 0.3 to 3 mg/kg siRNA, imaged 48 hours post dose; compared with RDV containing octyl-CLinDMA (OCD); FIG. 1
Procedure: LNPs utilizing Compounds 1-2, in the nominal compositions described immediately above, were evaluated for in vivo efficacy and induction of inflammatory cytokines in a luciferase mouse model. The siRNA targets the mRNA transcript for the firefly (Photinus pyralis) luciferase gene (Accession #M15077). […] The in vivo luciferase model employs a transgenic mouse in which the firefly luciferase coding sequence is present in all cells. ROSA26-LoxP-Stop-LoxP-Luc (LSL-Luc) transgenic mice licensed from the Dana Farber Cancer Institute are induced to express the Luciferase gene by first removing the LSL sequence with a recombinant Ad-Cre virus (Vector Biolabs). Due to the organo-tropic nature of the virus, expression is limited to the liver when delivered via tail vein injection. Luciferase expression levels in liver are quantitated by measuring light output, using an IVIS imager (Xenogen) following administration of the luciferin substrate (Caliper Life Sciences). Pre-dose luminescence levels are measured prior to administration of the RDVs. Luciferin in PBS (15 mg/mL) is intraperitoneally (IP) injected in a volume of 150 μL. […] In vivo efficacy results are expressed as % inhibition of luminescence relative to pre-dose luminescence levels. Plasma cytokine levels were determined using the SearchLight multiplexed cytokine chemiluminescent array (Pierce/Thermo). […]

[2] = Rat in vivo toxicity (serum ALT and AST); conditions: Sprague-Dawley female rats, serum 24 hours after LNP dosing; compared with RDV containing octyl-CLinDMA; FIG. 3
Procedure: (§1) Six hours post dose, food is removed from the cages. Animal necropsy is performed 24 hours after LNP dosing. Rats are anesthetized under isoflurane for 5 minutes, then maintained under anesthesia by placing them in nose cones continuing the delivery of isoflurane until ex-sanguination is completed. Blood is collected from the vena cava using a 23 gauge butterfly venipuncture set and aliquoted to serum separator vacutainers for serum chemistry analysis. Punches of the excised caudate liver lobe are taken and placed in RNALater (Ambion) for mRNA analysis. Preserved liver tissue was homogenized and total RNA isolated using a Qiagen bead mill and the Qiagen miRNA-Easy RNA isolation kit following the manufacturer's instructions. Liver ApoB mRNA levels were determined by quantitative RT-PCR. Message was amplified from purified RNA utilizing a rat ApoB commercial probe set (Applied Biosystems Cat # RN01499054_m1). The PCR reaction was performed on an ABI 7500 instrument with a 96-well Fast Block. The ApoB mRNA level is normalized to the housekeeping PPIB (NM 011149) mRNA. PPIB mRNA levels were determined by RT-PCR using a commercial probe set (Applied Biosystems Cat. No. Mm00478295_m1). Results are expressed as a ratio of ApoB mRNA/PPIB mRNA. All mRNA data is expressed relative to the PBS control dose. […]

[3] = system: mRNA transcript for the ApoB gene; assay: Rat in vivo evaluation of efficacy (liver ApoB mRNA by quantitative RT-PCR); conditions: Sprague-Dawley female rats, ApoB siRNA RDV tail vein injected, necropsy 24 hours after dosing; compared with RDV containing octyl-CLinDMA; FIG. 2
Procedure: as §1

For `CCCCC/C=C\C/C=C\CCCCCCCCOC[C@H](COCCCCCCCC)N(C)C` [Compound 1, S-N,N-dimethyl-1-[(9Z,12Z)-octadeca-9,12-dien-1-yloxy]-3-(octyloxy)propan-2-amine], the “In vivo efficacy, % inhibition of luminescence relative to pre-dose luminescence levels” value [1] was “Greater efficacy”, the “Elevations in LFTs (ALT/AST)” value [2] was “lower elevations in LFTs (ALT/AST)” and the “In vivo efficacy, liver ApoB mRNA/PPIB mRNA relative to the PBS control dose” value [3] was “Greater efficacy”.
